What was measured:
M-HeLa = test: MTT cell viability test, M-HeLa; type: cell-based, human; conditions: for IC50: Homo sapiens, M-HeLa, incubation time 24 h; for selectivity (SI) for M-HeLa: IC50 normal cells (WI38) / IC50 M-HeLa
Description: (§1) Human cell cultures of tumor origin—HeLa (cervical tumor), HuTu 80 (human duodenal adenocarcinoma), ChangLiver (human liver HeLa-like line), and normal cell line WI38, VA 13 subline 2RA is a diploid human cell strain composed of fibroblasts derived from healthy lung tissue provided by The Gamaleya National Center for Epidemiology and Microbiology, as well as the Institute of Cytology of the Russian Academy of Sciences. They were grown in a nutrient medium DMEM (PanEco, Moscow, Russia) and MEM (PanEco, Moscow, Russia), containing fetal bovine serum (10% by volume) (ThermoFisher Scientific, Paisley, UK), Glutamax (2 mM) (Gibco, Scotland, UK), and penicillin-streptomycin (1% by volume) (PanEco, Moscow, Russia). The cultivation was carried out at 37 °C in a humidified CO2 atmosphere (5%).
(§2) Cell viability was determined by the MTT test. Cells were seeded in a 96-well plate in the amount of 1 × 10^4 cells/200 µL of complete nutrient medium and cultured at 37 °C in CO2 (5%). After 24 h of incubation, various concentrations of test compounds in the range of 0.1 to 100 μM were added to the cell cultures, and then the cells were cultured under the same conditions for 24 and 72 h. For each concentration, the experiment was carried out in triplicate.
(§3) All compounds were dissolved in DMSO and then diluted with the medium to the required concentration. […] The DMSO was also added to the control wells in a volume of 1%. After the incubation time, MTT (3-(4,5-dimethylthiazol-2-yl)-2,5-diphenyltetrazolium bromide, 5 mg/mL) was added to each well, and plates were additionally incubated for 2 h (until the characteristic color appeared).
(§4) Using a plate analyzer (Cytation3, BioTech Instruments Inc., Winooski, VT, USA), the optical density was determined at 530 nm.
(§5) The IC50 parameter was calculated using the AAT Bioquest program.
(§6) The selectivity index (SI) is calculated as the ratio between the IC50 for normal cells and the IC50 for cancer cells.

HuTu 80 = test: MTT cell viability test, HuTu 80; type: cell-based, human; conditions: for IC50: Homo sapiens, HuTu80, incubation time 24 h; for selectivity (SI) for HuTu 80: IC50 normal cells (WI38) / IC50 HuTu 80
Description: as §1, §2, §3, §4, §5, §6

Chang Liver = test: MTT cell viability test, Chang liver; type: cell-based; conditions: Homo sapiens, incubation time 24 h
Description: as §1, §2, §3, §4, §5

WI38 = test: MTT cell viability test, WI38; type: cell-based, human; conditions: for IC50: Homo sapiens, WI-38, incubation time 24 h
Description: as §1, §2, §3, §4, §5

HuTu 80 cells [1] = test: Apoptosis induction, annexin V/propidium iodide flow cytometry; type: cell-based, human; conditions: 24 h; IC50 concentration of 40 μM
Description: HuTu 80 cells at 1 × 10^6 cells/well in a final volume of 2 mL were seeded into six-well plates. After 24 h of incubation, various concentrations of tested compounds were added to the wells. The cells were harvested at 2757 g for 5 min and then washed twice with ice-cold PBS, followed by resuspension in binding buffer. Next, the samples were incubated with 5 μL of annexin V-Alexa Fluor 647 (Sigma-Aldrich, Burlington, MA, USA) and 5 μL of propidium iodide for 15 min at room temperature in the dark. Finally, the cells were analyzed by flow cytometry (Guava easyCyte, Merck, Rahway, NJ, USA) within 1 h. The experiments were repeated three times.

HuTu 80 cells [2] = test: Mitochondrial membrane potential, JC-10 flow cytometry; type: cell-based, human; conditions: 24 h; concentrations corresponding to IC50
Description: To analyze the effect of compounds on changes in the mitochondrial membrane potential, we performed flow cytometry using JC-10 fluorescent dye (in the Mitochondria Membrane Potential Kit). In normal cells (with high membrane potential), JC-10 accumulates in the mitochondrial matrix, where it forms aggregates with red fluorescence. However, in apoptotic cells, JC-10 diffuses out of mitochondria, converts to its monomeric form, and emits green fluorescence, which is recorded by a flow cytometer. Cells were harvested at 2757 g for 5 min and then washed twice with ice-cold PBS, followed by resuspension in JC-10 (10 µg/mL) and incubation at 37 °C for 10 min. Then, the cells were rinsed three times and suspended in PBS, and the JC-10 fluorescence was observed by flow cytometry (Guava easyCyte, Merck, Rahway, NJ, USA).

HuTu 80 cells [3] = test: ROS production, CellROX Deep Red flow cytometry; type: cell-based, human
Description: ROS generation was investigated using a flow cytometry assay and the CellROX® Deep Red flow cytometry kit. For this, HuTu 80 cells were harvested at 2000 rpm for 5 min and then washed twice with ice-cold PBS, followed by resuspension in 0.1 mL of medium without FBS, to which was added 0.2 μL of CellROX® Deep Red and incubated at 37 °C for 30 min. After three times washing the cells and suspending them in PBS, the production of ROS in the cells was immediately monitored using a flow cytometer (Guava easyCyte, Merck, Rahway, NJ, USA).

platelet aggregation = test: Platelet aggregation, Born method; type: cell-based, human; conditions: for reduction of the maximum platelet aggregation, on average: text summary for 3a and 3b
Description: The in vitro experiments were performed using the blood of healthy male donors aged 18-24 years (a total of 54 donors). This study was approved by the Ethics Committee of the Federal State Budgetary Educational Institution of Higher Education at the Bashkir State Medical University of the Ministry of Health of the Russian Federation (No. 2, dated 17 October 2012). Informed consent was obtained from all participants before blood sampling. The blood was collected from the cubital vein using the vacuum blood collection system BD Vacutainer® (Becton, Dickinson, and Company, Franklin Lakes, NJ, USA). […] The study of the effect on platelet aggregation was performed using the Born method using the aggregometer «[…], Moscow, Russia). The assessment of the antiplatelet activity of the studied compounds and reference preparations was started with a final concentration of 2 × 10^-3 mol/L. Adenosine diphosphate (ADP; 20 μg/mL) and collagen (5 mg/mL) manufactured by […] Company, Barnaul, Russia, were used as inducers of aggregation. The study on the anticoagulant activity was performed by standard recognized clotting tests using the optical two-channel automatic analyzer of blood coagulation, Solar […] SOLAR, Minsk, Belarus). The following parameters were studied: activated partial thromboplastin time (APTT), prothrombin time (PT), and fibrinogen concentrations according to the Clauss method. The determination of the anticoagulant activity of the studied compounds and reference preparation was performed at a concentration of 5 × 10^-4 g/mL using the reagents manufactured by […] Company (Barnaul, Russia). The results of the study were processed using the statistical package Statistica 10.0 (StatSoft Inc., Tulsa, OK, USA). The Shapiro-Wilk's test was used to check the normality of the [NT] distribution. The form of distribution of the data obtained differed from the normal one; therefore, non-parametric methods were used for further analysis. The data were presented as medians and 25 and 75 percentiles. An analysis of variance was conducted using the Kruskal-Wallis test.

| IC50 (M-HeLa) | Structure (SMILES) | selectivity (SI) for M-HeLa (M-HeLa) | cytotoxicity, times higher than the reference drug 5-FU (M-HeLa; cell line not given) | IC50 (HuTu 80) | selectivity (SI) for HuTu 80 (HuTu 80) | IC50 (Chang Liver) | cytotoxicity against the healthy cell line WI38 (WI38) | IC50 (WI38) | apoptosis-inducing activity (HuTu 80 cells [1]) | green fluorescence increased relative to the control (HuTu 80 cells [2]) | ROS production relative to the control (HuTu 80 cells [3]) | lengthening of the lag-period relative to the control (platelet aggregation) | reduction of the maximum platelet aggregation, on average (platelet aggregation) | increase in ROS production relative to the control (HuTu 80 cells [3]; 12.5 µM) | increase in ROS production relative to the control (HuTu 80 cells [3]; 25 µM) |
| --- | --- | --- | --- | --- | --- | --- | --- | --- | --- | --- | --- | --- | --- | --- | --- |
| 32.1 ± 2.5 µM | O=C1C(=O)N(Cc2ccccc2Cl)c2ccc(F)cc21 [Compound 3b, 1-(2-Chlorobenzyl)-5-fluoroindoline-2,3-dione] | 1.8 | 2.0 times | 38.3 ± 3 µM | 1.5 | 71.5 ± 5.6 µM | low cytotoxicity | 58.1 ± 6.6 µM | highest apoptosis-inducing activity | up to 55% | increased ROS production | more than 10% | ~12% |  |  |
| 74.6 ± 5.9 µM | O=C1C(=O)N(Cc2ccccc2F)c2ccc(F)cc21 [Compound 3a, 5-Fluoro-1-(2-fluorobenzyl)indoline-2,3-dione] |  |  | 25.2 ± 1.9 µM | 2.5 | 53 ± 4.2 µM | low cytotoxicity | 62 ± 2 µM |  |  |  | more than 10% | ~12% | 1.1 fold | 7.1 times |
| 53.8 ± 4.3 µM | O=C1C(=O)N(Cc2c(F)cccc2Cl)c2ccc(F)cc21 [Compound 3d, 1-(2-Chloro-6-fluorobenzyl)-5-fluoroindoline-2,3-dione] | 1.5 |  | 31 ± 2.4 µM | 2.5 | > 100 µM | low cytotoxicity | 78.3 ± 8 µM |  | up to 55% | increased ROS production |  |  |  |  |
| 62 ± 4.9 µM | O=c1[nH]cc(F)c(=O)[nH]1 [Compound 5-FU, 5-fluorouracil, reference compound] | ≤ 1 |  |  | ≤ 1 | 19 ± 1.7 µM |  | 62 ± 4.2 µM |  |  |  |  |  |  |  |

— article PMC10607100, “Anticancer and Antiphytopathogenic Activity of Fluorinated Isatins and Their Water-Soluble Hydrazone Derivatives” (International Journal of Molecular Sciences, 2023)
